The record followed here is patent US20250213555A1, “SUBSTITUTED TETRAHYDROFURAN ANALOGS AS MODULATORS OF SODIUM CHANNELS” (VERTEX PHARMACEUTICALS INCORPORATED, priority 2021, published 2025).

Where only a bound is given, the exact number is not on record here.

human Nav 1.8, sequence (Q9Y5Y9 126-399 limits assumed): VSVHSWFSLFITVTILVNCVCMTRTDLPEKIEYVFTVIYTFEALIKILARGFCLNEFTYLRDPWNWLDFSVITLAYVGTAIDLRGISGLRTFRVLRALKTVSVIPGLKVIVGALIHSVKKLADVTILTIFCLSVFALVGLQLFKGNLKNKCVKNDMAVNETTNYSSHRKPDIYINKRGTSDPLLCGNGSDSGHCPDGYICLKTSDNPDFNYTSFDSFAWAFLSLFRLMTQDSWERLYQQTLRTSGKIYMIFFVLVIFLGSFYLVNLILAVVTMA
human Nav 1.8, sequence (Q9Y5Y9 660-890 limits assumed): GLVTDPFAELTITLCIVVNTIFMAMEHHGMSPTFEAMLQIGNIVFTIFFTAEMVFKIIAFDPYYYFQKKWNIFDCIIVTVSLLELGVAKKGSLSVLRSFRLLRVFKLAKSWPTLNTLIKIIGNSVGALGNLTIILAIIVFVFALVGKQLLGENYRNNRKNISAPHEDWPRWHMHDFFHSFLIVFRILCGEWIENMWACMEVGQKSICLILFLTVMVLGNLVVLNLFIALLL
human Nav 1.8, sequence (Q9Y5Y9 1148-1722 limits assumed): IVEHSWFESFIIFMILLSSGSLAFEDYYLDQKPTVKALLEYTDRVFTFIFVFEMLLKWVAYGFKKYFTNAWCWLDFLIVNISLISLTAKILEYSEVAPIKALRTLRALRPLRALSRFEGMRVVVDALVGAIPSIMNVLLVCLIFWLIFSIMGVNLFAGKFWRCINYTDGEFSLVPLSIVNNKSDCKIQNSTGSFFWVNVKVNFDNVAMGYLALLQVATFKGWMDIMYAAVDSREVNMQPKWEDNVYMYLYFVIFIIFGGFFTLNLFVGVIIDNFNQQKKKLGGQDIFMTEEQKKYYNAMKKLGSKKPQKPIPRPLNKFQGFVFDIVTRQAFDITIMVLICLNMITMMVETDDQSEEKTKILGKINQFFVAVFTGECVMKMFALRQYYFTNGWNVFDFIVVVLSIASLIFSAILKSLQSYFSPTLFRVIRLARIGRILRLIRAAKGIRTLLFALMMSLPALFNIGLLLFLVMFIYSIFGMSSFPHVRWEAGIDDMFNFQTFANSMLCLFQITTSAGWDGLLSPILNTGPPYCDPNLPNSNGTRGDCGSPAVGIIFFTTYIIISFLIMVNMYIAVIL

This assay concerns the target human Nav 1.8 (Homo sapiens, UniProt Q9Y5Y9). Nature of the assay: E-VIPR assay detecting and measuring Nav inhibition properties. It counts as cell-based. Particulars: HEK cells expressing a truncated form of human Nav 1.8; compound numbers without "*" (not marked as run in the presence of human serum); read-out: measured IC50 value in the E-VIPR Assay. In short, it runs like this: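 Nav inhibition was read by E-VIPR: cells were electrically stimulated while coumarin/oxonol FRET emissions were recorded. Cells were HEK expressing a truncated human Nav 1.8 and co-transduced with KIR2.1, and were assayed in 25% final human serum.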
With `COc1c([C@H]2[C@H](C(=O)Nc3ccnc(C(=O)N4CC5(CN(C)C5)C4)c3)O[C@@](C)(C(F)(F)F)[C@H]2C)ccc(F)c1F` [Compound 268, (2R,3S,4S,5R)-3-(3,4-difluoro-2-methoxyphenyl)-4,5-dimethyl-N-(2-(6-methyl-2,6-diazaspiro[3.3]heptane-2-carbonyl)pyridin-4-yl)-5-(trifluoromethyl)tetrahydrofuran-2-carboxamide], the IC50 is less than 10 nM.
As for `C[C@H]1[C@@H](c2ccc(F)c(F)c2OCC2(CO)COC2)[C@H](C(=O)Nc2ccnc(C(N)=O)c2)O[C@@]1(C)C(F)(F)F` [Compound 94, 4-((2R,3S,4S,5R)-3-(3,4-difluoro-2-((3-(hydroxymethyl)oxetan-3-yl)methoxy)phenyl)-4,5-dimethyl-5-(trifluoromethyl)tetrahydrofuran-2-carboxamido)picolinamide], the IC50 is 100 to 1000 nM.
In the case of `C[C@H]1[C@@H](c2ccc(F)c(F)c2OCCNC2COC2)[C@H](C(=O)Nc2ccnc(C(N)=O)c2)O[C@@]1(C)C(F)(F)F` [Compound 118, 4-((2R,3S,4S,5R)-3-(3,4-difluoro-2-(2-(oxetan-3-ylamino)ethoxy)phenyl)-4,5-dimethyl-5-(trifluoromethyl)tetrahydrofuran-2-carboxamido)picolinamide] it was 10 to 100 nM; in that of `COc1c([C@H]2[C@H](C(=O)Nc3cc(C(=O)N4CCN(C)CC4)ncc3F)O[C@@](C)(C(F)(F)F)[C@H]2C)ccc(F)c1F` [Compound 9, (2R,3S,4S,5R)-3-(3,4-difluoro-2-methoxyphenyl)-N-(5-fluoro-2-(4-methylpiperazine-1-carbonyl)pyridin-4-yl)-4,5-dimethyl-5-(trifluoromethyl)tetrahydrofuran-2-carboxamide], less than 10 nM; in that of `COc1c([C@H]2[C@H](C(=O)Nc3ccnc(C(=O)N4CCN(C)C(C)(C)C4)c3)O[C@@](C)(C(F)(F)F)[C@H]2C)ccc(F)c1F` [Compound 280, (2R,3S,4S,5R)-3-(3,4-difluoro-2-methoxyphenyl)-4,5-dimethyl-5-(trifluoromethyl)-N-(2-(3,3,4-trimethylpiperazine-1-carbonyl)pyridin-4-yl)tetrahydrofuran-2-carboxamide], less than 10 nM.
In the case of `C[C@H]1[C@@H](c2ccc(F)c(F)c2OCc2cn(C)cn2)[C@H](C(=O)Nc2ccnc(C(N)=O)c2)O[C@@]1(C)C(F)(F)F` [Compound 88, 4-((2R,3S,4S,5R)-3-(3,4-difluoro-2-((1-methyl-1H-imidazol-4-yl)methoxy)phenyl)-4,5-dimethyl-5-(trifluoromethyl)tetrahydrofuran-2-carboxamido)picolinamide] it was less than 10 nM; in that of `C[C@H]1[C@@H](c2ccc(F)c(F)c2OCCC2(C#N)CC2)[C@H](C(=O)Nc2ccnc(C(N)=O)c2)O[C@@]1(C)C(F)(F)F` [Compound 77, 4-((2R,3S,4S,5R)-3-(2-(2-(1-cyanocyclopropyl)ethoxy)-3,4-difluorophenyl)-4,5-dimethyl-5-(trifluoromethyl)tetrahydrofuran-2-carboxamido)picolinamide], less than 10 nM; in that of `COc1c([C@H]2[C@H](C(=O)Nc3ccnc(C(N)=O)c3)O[C@@](C)(C(F)(F)F)[C@H]2C)ccc(OC2CC(F)(F)C2)c1F` [Compound 207, 4-((2R,3S,4S,5R)-3-(4-(3,3-difluorocyclobutoxy)-3-fluoro-2-methoxyphenyl)-4,5-dimethyl-5-(trifluoromethyl)tetrahydrofuran-2-carboxamido) picolinamide], less than 10 nM.
Then `COc1c([C@H]2[C@H](C(=O)Nc3ccnc(C(=O)NCCO)c3)O[C@@](C)(C(F)(F)F)[C@H]2C)ccc(F)c1F` [Compound 221, 4-((2R,3S,4S,5R)-3-(3,4-difluoro-2-methoxyphenyl)-4,5-dimethyl-5-(trifluoromethyl)tetrahydrofuran-2-carboxamido)-N-(2-hydroxyethyl)picolinamide], with less than 10 nM; and `COCc1c([C@@H]2[C@@H](C(=O)Nc3ccnc(C(N)=O)c3)O[C@](C)(C(F)(F)F)[C@@H]2C)ccc(F)c1F` (single isomer, unassigned) [Compound 146], with no less than 1000 nM; and `C[C@]1(C(F)(F)F)C[C@@H](c2ccc(F)c(F)c2OCCO)[C@H](C(=O)Nc2ccnc(C(N)=O)c2)O1` (relative stereo) [Compound 33, rel-4-((2R,3S,5R)-3-(3,4-difluoro-2-(2-hydroxyethoxy)phenyl)-5-methyl-5-(trifluoromethyl)tetrahydrofuran-2-carboxamido)picolinamide], with 10 to 100 nM.
For `C[C@H]1[C@@H](c2ccc(F)c(F)c2OCCc2cncn2C)[C@H](C(=O)Nc2ccnc(C(N)=O)c2)O[C@@]1(C)C(F)(F)F` [Compound 86, 4-((2R,3S,4S,5R)-3-(3,4-difluoro-2-(2-(1-methyl-1H-imidazol-5-yl)ethoxy)phenyl)-4,5-dimethyl-5-(trifluoromethyl)tetrahydrofuran-2-carboxamido)picolinamide], the IC50 is less than 10 nM.
Then `C[C@H]1[C@@H](c2ccc(F)c(F)c2OCC2(F)CNC2)[C@H](C(=O)Nc2ccnc(C(N)=O)c2)O[C@@]1(C)C(F)(F)F` [Compound 106, 4-((2R,3S,4S,5R)-3-(3,4-difluoro-2-((3-fluoroazetidin-3-yl)methoxy)phenyl)-4,5-dimethyl-5-(trifluoromethyl)tetrahydrofuran-2-carboxamido)picolinamide], with 100 to 1000 nM; and `COc1c([C@H]2[C@H](C(=O)Nc3ccnc(C(=O)NC4CN(C)C4)c3)O[C@@](C)(C(F)(F)F)[C@H]2C)ccc(F)c1F` [Compound 275, 4-((2R,3S,4S,5R)-3-(3,4-difluoro-2-methoxyphenyl)-4,5-dimethyl-5-(trifluoromethyl)tetrahydrofuran-2-carboxamido)-N-(1-methylazetidin-3-yl)picolinamide], with 10 to 100 nM; and `COc1c([C@H]2[C@H](C(=O)Nc3nccc(C(=O)N4CCN(C)CC4)n3)O[C@@](C)(C(F)(F)F)[C@H]2C)ccc(F)c1F` [Compound 13, (2R,3S,4S,5R)-3-(3,4-difluoro-2-methoxyphenyl)-4,5-dimethyl-N-(4-(4-methylpiperazine-1-carbonyl)pyrimidin-2-yl)-5-(trifluoromethyl)tetrahydrofuran-2-carboxamide], with 100 to 1000 nM.
Then `COc1c([C@H]2[C@H](C(=O)Nc3ccnc(C(N)=O)c3)O[C@@](C)(C(F)(F)F)[C@H]2C)cc(OC2CC(F)(F)C2)c(F)c1F` [Compound 179, 4-((2R,3S,4S,5R)-3-(5-(3,3-difluorocyclobutoxy)-3,4-difluoro-2-methoxyphenyl)-4,5-dimethyl-5-(trifluoromethyl)tetrahydrofuran-2-carboxamido) picolinamide], with 100 to 1000 nM; and `COc1c([C@H]2[C@H](C(=O)Nc3cc(C(=O)N4CCNCC4)ccn3)O[C@@](C)(C(F)(F)F)[C@H]2C)ccc(F)c1F` [Compound 18, (2R,3S,4S,5R)-3-(3,4-difluoro-2-methoxyphenyl)-4,5-dimethyl-N-(4-(piperazine-1-carbonyl)pyridin-2-yl)-5-(trifluoromethyl)tetrahydrofuran-2-carboxamide], with 10 to 100 nM; and `C[C@H]1[C@@H](c2ccc(F)c(F)c2OCCNCC(F)F)[C@H](C(=O)Nc2ccnc(C(N)=O)c2)O[C@@]1(C)C(F)(F)F` [Compound 112, 4-((2R,3S,4S,5R)-3-(2-(2-((2,2-difluoroethyl)amino)ethoxy)-3,4-difluorophenyl)-4,5-dimethyl-5-(trifluoromethyl)tetrahydrofuran-2-carboxamido)picolinamide], with less than 10 nM.
As to `COc1c([C@H]2[C@H](C(=O)Nc3cc(C(=O)N4CCN(C)CC4)ccn3)O[C@@](C)(C(F)(F)F)[C@H]2C)ccc(F)c1F` [Compound 14, (2R,3S,4S,5R)-3-(3,4-difluoro-2-methoxyphenyl)-4,5-dimethyl-N-(4-(4-methylpiperazine-1-carbonyl)pyridin-2-yl)-5-(trifluoromethyl)tetrahydrofuran-2-carboxamide], the IC50 lay in the range of 100 to 1000 nM.
As for `CC1C(c2ccc(F)c(F)c2OC2CC(O)C2)C(C(=O)Nc2ccnc(C(N)=O)c2)OC1(C)C(F)(F)F` [Compound 166, 4-((2R,3S,4S,5R)-3-(3,4-difluoro-2-((1s,3R)-3-hydroxycyclobutoxy)phenyl)-4,5-dimethyl-5-(trifluoromethyl)tetrahydrofuran-2-carboxamido)picolinamide], the IC50 was less than 10 nM.
Turning to `CN[C@H]1CN(C(=O)c2cc(NC(=O)[C@@H]3O[C@@](C)(C(F)(F)F)[C@@H](C)[C@H]3c3ccc(F)c(F)c3OC)ccn2)C[C@H]1OC` [Compound 297, (2R,3S,4S,5R)-3-(3,4-difluoro-2-methoxyphenyl)-N-(2-((3R,4S)-3-methoxy-4-(methylamino)pyrrolidine-1-carbonyl)pyridin-4-yl)-4,5-dimethyl-5-(trifluoromethyl)tetrahydrofuran-2-carboxamide], the half-maximal inhibitory concentration (IC50) was less than 10 nM.
On to `C[C@H]1[C@@H](c2ccc(F)c(F)c2OC2CC(O)C2)[C@H](C(=O)Nc2ccnc(C(N)=O)c2)O[C@@]1(C)C(F)(F)F` (stereo partly drawn) [Compound 163, 4-((2R,3S,4S,5R)-3-(3,4-difluoro-2-(3-hydroxycyclobutoxy)phenyl)-4,5-dimethyl-5-(trifluoromethyl)tetrahydrofuran-2-carboxamido)picolinamide], for which the IC50 was less than 10 nM.
Then `C[C@H]1[C@@H](c2ccc(F)c(F)c2OCC2CN(C)C2)[C@H](C(=O)Nc2ccnc(C(N)=O)c2)O[C@@]1(C)C(F)(F)F` [Compound 104, 4-((2R,3S,4S,5R)-3-(3,4-difluoro-2-((1-methylazetidin-3-yl)methoxy)phenyl)-4,5-dimethyl-5-(trifluoromethyl)tetrahydrofuran-2-carboxamido)picolinamide], with 10 to 100 nM.
